Laboratory results reported in US4160768A, “Anti-inflammatory 3-benzofuranyl imidazothiazole” (Diamond Shamrock Corporation, priority 1978, dated 1979).
Counter-ions that a name gives are not always drawn.

What was measured:
[1] = adrenalectomized assay (carrageenin edema in adrenalectomized rats); format: in vivo, Adrenalectomized Sprague Dawley Male Rats; settings: Rattus norvegicus, po, 3 h, read-out: % Reduction (adrenalectomized rats)
Procedure: (§1) The procedure used for measuring the inhibition of carrageenin-induced edema is a slight modification of the method of Winter et al., Proc. Soc. Explt. Biol. Med. 111: 544 (1962). The device used for measurement of the paw volume is an adaptation of the water displacement procedure described by Adamkiewicz et al., Can. J. Biochem. Physiol. 33: 332 (1955). The above compounds were studied for their effectiveness in preventing the edema caused by the intraplantar injection of 0.05 ml of a sterile 1.0% solution of carrageenin. Compounds were administered orally, except when indicated as intraperitoneally (i.p.), one hour prior to the injection of the carrageenin into the left hind paw of rats. At peak swelling time (3 hours) the volume of edema was calculated by differential paw volumes.
Next, certain of the compounds were subjected to a secondary screen designated the adrenalectomized assay. In this series of tests, the method used was identical to that described above, except that the animals used were adrenalectomized several days prior to assay. Since the results in the nonadrenalectomized animals were similar to those obtained in the adrenalectromized animals, it can be inferred that the antiinflammatory activity of the test compounds was not caused by the release of endogeneous adrenocortical steriods.

[2] = carrageenin-induced edema in the hind paw of the rat (modified Winter et al.); format: in vivo; settings: 3 h, 3 h; for inhibition in vivo at 50 mg/kg / ED50 / inhibition in vivo at 25 mg/kg: po; for ED50: dose which reduced edema formation by about 25% or more vs mean control in 50% of the animals
Procedure: as §1
Table I (in which Ph=phenyl) sets forth results obtained at the indicated dosages with compounds (or their salts) of the formula [drawing 8]
Following the procedure set forth in Example 4, hydrated compounds according to the following formula were evaluated for antiinflammatory effect with the results shown in Table II: [drawing 9]
Certain of the compounds of the invention were further tested to determine their ED50 values. […] Typical results of these tests appear in Table III.

[3] = adjuvant-induced arthritis test (Newbould); format: in vivo, rat
Text: Selected compounds were further subjected to advanced evaluations. Specifically, in view of the interesting activity of compounds 1 and 9, those compounds were further subjected to the adjuvant-induced arthritis test. This test requires one month (from day 0 to day 31). In the first seventeen days (0-17), the disease is in a developing stage, while for the remainder of the month (18-31) the disease is fully developed.
The method is essentially that of Newbould, Brit. J. Pharmacol. 21: 127, 1963. The test compounds were studied in the developing arthritis state and in the established arthritic state. Separate groups of twelve rats were administered the compounds orally using methylcellulose as the vehicle. In the study on the developing disease, administration of the test compounds begins on day 1 and on day 2 each animal is injected with 0.05 ml/kg of a 0.5% suspension of heat-killed Mycobacterium tuberculosis into the planter surface of the left hind paw. Foot volumes were measured by a water displacement device on the day of administration of the Mycobacterium and again on days 3, 10 and 17. The test compounds were administered once daily. Body weights were recorded daily and the animals were examined for the spread of the inflammation and the degree of secondary lesions. For study in the established disease, another group of rats are injected with the Mycobacterium and foot volumes are measured. After twenty days volumes are again measured and administration of the test compounds begins and continues for eleven days. Foot volume measurements are repeated on day 27 and day 31. The extent of the spread of the inflammation and the degree of lesions are recorded daily as are the body weights. The effect of the test compounds is measured by the percentage reduction in left hind paw volumes as compared to the hind paw volumes of the control groups.

[4] = Rattus norvegicus, Table I, 50 mg/kg, oral, 1 h before carrageenin, read-out: Reduction % (carrageenin edema)
[5] = Rattus norvegicus, Table I, oral, 1 h before carrageenin, read-out: Reduction % (carrageenin edema)

SMILES: C1=C(c2ccccc2)N2CCN=C2S1 [Compound 1]
- inhibition in vivo at 50 mg/kg [1]: 32%
- inhibition in vivo at 50 mg/kg [2, 4]: 47%
- ED50 ([2]; Rattus norvegicus): 25 mg/kg
- % reduction in swelling, hind paws ([3]; 20 mg/kg, day 3, developing (prophylactic)): 18%
- % reduction in swelling, hind paws ([3]; 20 mg/kg, day 10, developing (prophylactic)): 13%
- % reduction in swelling, hind paws ([3]; 20 mg/kg, day 17, developing (prophylactic)): 18%
- % reduction in swelling, hind paws ([3]; 20 mg/kg, day 20, developed (therapeutic)): 5%
- % reduction in swelling, hind paws ([3]; 20 mg/kg, day 27, developed (therapeutic)): 0%
- % reduction in swelling, hind paws ([3]; 20 mg/kg, day 31, developed (therapeutic)): 0%
- % reduction in swelling, hind paws ([3]; 40 mg/kg, day 3, developing (prophylactic)): 10%
- % reduction in swelling, hind paws ([3]; 40 mg/kg, day 10, developing (prophylactic)): 21%
- % reduction in swelling, hind paws ([3]; 40 mg/kg, day 17, developing (prophylactic)): 43%
- % reduction in swelling, hind paws ([3]; 40 mg/kg, day 20, developed (therapeutic)): 4%
- % reduction in swelling, hind paws ([3]; 40 mg/kg, day 27, developed (therapeutic)): 14%
- % reduction in swelling, hind paws ([3]; 40 mg/kg, day 31, developed (therapeutic)): 8%

SMILES: Cc1ccc(C2=CSC3=NCCN23)cc1C [Compound 2]
- inhibition in vivo at 50 mg/kg [2, 4]: 27%

SMILES: CSC1=C(C(C)(C)C)N2CCN=C2S1 [Compound 3, 2-methylthio-3-t-butyl-5,6-dihydro-4H-imidazo-[2,1-b] thiazole hydrobromide]
- inhibition in vivo at 50 mg/kg [2, 4]: 26%

SMILES: CCC1=C(c2ccccc2)N2CCN=C2S1 [Compound 4]
- inhibition in vivo at 25 mg/kg [1]: 31%
- inhibition in vivo at 25 mg/kg [2, 5]: 41%

SMILES: CCC1=C(c2ccc(Cl)cc2)N2CCN=C2S1 [Compound 5]
- inhibition in vivo at 25 mg/kg [1]: 15%
- inhibition in vivo at 25 mg/kg [2, 5]: 33%

SMILES: CC1=C(c2ccc(Cl)cc2)N2CCN=C2S1 [Compound 6]
- inhibition in vivo at 25 mg/kg [1]: 19%
- inhibition in vivo at 25 mg/kg [2, 5]: 45%

SMILES: Brc1ccc(C2=CSC3=NCCN23)cc1 [Compound 7]
- inhibition in vivo at 50 mg/kg [2, 4]: 70%

SMILES: CC(C)(C)C1=CSC2=NCCN12 [Compound 8]
- inhibition in vivo at 25 mg/kg [1]: 23%
- inhibition in vivo at 50 mg/kg [2, 4]: 56%

SMILES: CC1=CSC2=NCCN12 [Compound 9]
- inhibition in vivo at 25 mg/kg [1]: 46%
- inhibition in vivo at 50 mg/kg [2, 4]: 46%
- ED50 ([2]; Rattus norvegicus): 20 mg/kg
- % reduction in swelling, hind paws ([3]; 24 mg/kg, day 3, developing (prophylactic)): 21%
- % reduction in swelling, hind paws ([3]; 24 mg/kg, day 10, developing (prophylactic)): 23%
- % reduction in swelling, hind paws ([3]; 24 mg/kg, day 17, developing (prophylactic)): 15%
- % reduction in swelling, hind paws ([3]; 24 mg/kg, day 20, developed (therapeutic)): 5%
- % reduction in swelling, hind paws ([3]; 24 mg/kg, day 27, developed (therapeutic)): 0%
- % reduction in swelling, hind paws ([3]; 24 mg/kg, day 31, developed (therapeutic)): 0%
- % reduction in swelling, hind paws ([3]; 50 mg/kg, day 3, developing (prophylactic)): 18%
- % reduction in swelling, hind paws ([3]; 50 mg/kg, day 10, developing (prophylactic)): 17%
- % reduction in swelling, hind paws ([3]; 50 mg/kg, day 17, developing (prophylactic)): 6%
- % reduction in swelling, hind paws ([3]; 50 mg/kg, day 20, developed (therapeutic)): 3%
- % reduction in swelling, hind paws ([3]; 50 mg/kg, day 27, developed (therapeutic)): 3%
- % reduction in swelling, hind paws ([3]; 50 mg/kg, day 31, developed (therapeutic)): 7%

SMILES: C1=C(c2cccc3ccccc23)N2CCN=C2S1 [Compound 10]
- inhibition in vivo at 50 mg/kg [1]: 18%
- inhibition in vivo at 50 mg/kg [2, 4]: 58%

SMILES: CC(C)(C)C1=CSC2=NCCN12 [Compound 11]
- Reduction (%) (carrageenin edema) ([2]; Table I, 50 mg/kg, oral, 1 h before carrageenin, 50 mg/kg): 48%

SMILES: CC1CN2C(C(C)(C)C)=CSC2=N1 (stereo not drawn) [Compound 12]
- inhibition in vivo at 50 mg/kg [2, 4]: 54%

SMILES: CC1=CSC2=NC(C)CN12 (stereo not drawn) [Compound 13]
- inhibition in vivo at 50 mg/kg [2, 4]: 24%

SMILES: CC1=C(c2ccccc2)N2CCN=C2S1 [Compound 14]
- inhibition in vivo at 50 mg/kg [2, 4]: 49%

SMILES: CC1=C(c2ccccc2)SC2=NCCN21 [Compound 15]
- inhibition in vivo at 50 mg/kg [2, 4]: 53%

SMILES: CC1CN2C(c3ccc(Cl)cc3)=CSC2=N1 (stereo not drawn) [Compound 16]
- inhibition in vivo at 50 mg/kg [1]: 16%
- inhibition in vivo at 50 mg/kg [2, 4]: 58%

SMILES: CC1CN2C(c3ccc([N+](=O)[O-])cc3)=CSC2=N1 (stereo not drawn) [Compound 17]
- inhibition in vivo at 50 mg/kg [1]: 60%
- inhibition in vivo at 50 mg/kg [2, 4]: 48%

SMILES: CC1CN2C(c3ccc(Cl)c(Cl)c3)=CSC2=N1 (stereo not drawn) [Compound 18]
- inhibition in vivo at 50 mg/kg [2, 4]: 42%

SMILES: O=C(O)CC1=C(c2ccccc2)N2CCN=C2S1 [Compound 19, 3-phenyl-5,6-dihydro-4H-imidazo[2,1-b] thiazo-2-yl-acetic acid hydrobromide]
- inhibition in vivo at 100 mg/kg ([2]; Rattus norvegicus, ip, Table I, 100 mg/kg i.p., 1 h before carrageenin, read-out: Reduction % (carrageenin edema)): 24%
